# Source: ChEMBL document CHEMBL1201862, “PubChem BioAssay data set” (2004)
#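 Briefly, cells in 96-well plates were exposed to five compound concentrations for 48 h, and endpoints were estimated by linear interpolation. GI50: concentration for 50% inhibition of growth.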 Active and inactive are the calls of the source. No stated cut-off is given here; in the data, active = GI50 up to about 1.1 µM and inactive = higher. Numbered stars: 1 amine (or outer) side, 2 acyl side, 3 side chain; on linkers, the order of the positions; unused ones are H or OH. Bridge positions count the residues as written; N and C are the ends. Square brackets hold non-standard residues; d marks the D form. Peptide text beside a SMILES is read from it. * marks the point of attachment. ξ: configuration not given here. X33 = O=C(C(CCCCNO[*:3])N[*:1])[*:2]; Fmoc = O=C(OCC1c2ccccc2-c2ccccc21)*; ξW = NC(Cc1c[nH]c2ccccc12)C(=O)O; ξP = O=C(O)C1CCCN1
# Tests used:
# Assay in all cases: NCI-60 cell line screen, 48 h
# HL-60 = tested on: HL-60
# SN12C = tested on: SN12C
# UO-31 = tested on: UO-31
# HCC 2998 = tested on: HCC 2998
# OVCAR-4 = tested on: OVCAR-4
# MDA-N = tested on: MDA-N
# MDA-MB-231 = tested on: MDA-MB-231
# SF-295 = tested on: SF-295
# Malme-3M = tested on: Malme-3M
# SNB-75 = tested on: SNB-75
# SK-MEL-2 = tested on: SK-MEL-2
# IGROV-1 = tested on: IGROV-1
# ACHN = tested on: ACHN
# HCT-116 = tested on: HCT-116
# PC-3 = tested on: PC-3
# DU-145 = tested on: DU-145
# KM12 = tested on: KM12
# CAKI-1 = tested on: CAKI-1
# LOX IMVI = tested on: LOX IMVI
# RXF 393 = tested on: RXF 393
# SF-268 = tested on: SF-268
# SW-620 = tested on: SW-620
# CCRF-CEM = tested on: CCRF-CEM
# HOP-62 = tested on: HOP-62
# BT-549 = tested on: BT-549
# MOLT-4 = tested on: MOLT-4
# OVCAR-3 = tested on: OVCAR-3
# UACC-62 = tested on: UACC-62
# NCI-H226 = tested on: NCI-H226
# MDA-MB-435 = tested on: MDA-MB-435
# HT-29 = tested on: HT-29
# NCI-H460 = tested on: NCI-H460
# U-251 = tested on: U-251
# OVCAR-5 = tested on: OVCAR-5
# EKVX = tested on: EKVX
# NCI-H522 = tested on: NCI-H522
# COLO 205 = tested on: COLO 205
# SK-MEL-28 = tested on: SK-MEL-28
# SF-539 = tested on: SF-539
# 786-0 = tested on: 786-0
# SK-MEL-5 = tested on: SK-MEL-5
# UACC-257 = tested on: UACC-257
# NCI/ADR-RES = tested on: NCI/ADR-RES
# NCI-H23 = tested on: NCI-H23
# K562 = tested on: K562
# OVCAR-8 = tested on: OVCAR-8
# M14 = tested on: M14
# SNB-19 = tested on: SNB-19
# MCF7 = tested on: MCF7
# TK-10 = tested on: TK-10
# HCT-15 = tested on: HCT-15
# SR = tested on: SR
# T47D = tested on: T47D
# HOP-92 = tested on: HOP-92
# A549 = tested on: A549
# SK-OV-3 = tested on: SK-OV-3
# Hs-578T = tested on: Hs-578T
# RPMI-8226 = tested on: RPMI-8226
compound,measurement,setting,value
COc1ccc(C2CC(=O)CC(c3ccc(OC)cc3)C23C(=O)NC(=O)NC3=O)cc1 (stereo unspecified),GI50,HL-60,27 µM (inactive)
same,GI50,SN12C,46.8 µM (inactive)
same,GI50,UO-31,31.6 µM (inactive)
same,GI50,HCC 2998,20.3 µM (inactive)
same,GI50,OVCAR-4,67 µM (inactive)
same,GI50,MDA-N,31.8 µM (inactive)
same,GI50,MDA-MB-231,39.1 µM (inactive)
same,GI50,SF-295,38 µM (inactive)
same,GI50,Malme-3M,25.9 µM (inactive)
same,GI50,SNB-75,25.8 µM (inactive)
same,GI50,SK-MEL-2,18.5 µM (inactive)
same,GI50,IGROV-1,26.2 µM (inactive)
same,GI50,ACHN,31.3 µM (inactive)
same,GI50,HCT-116,27.4 µM (inactive)
same,GI50,PC-3,33.9 µM (inactive)
same,GI50,DU-145,48 µM (inactive)
same,GI50,KM12,25.6 µM (inactive)
same,GI50,CAKI-1,33.1 µM (inactive)
same,GI50,LOX IMVI,30.5 µM (inactive)
same,GI50,RXF 393,45.9 µM (inactive)
same,GI50,SF-268,44.1 µM (inactive)
same,GI50,SW-620,18.7 µM (inactive)
same,GI50,CCRF-CEM,32.7 µM (inactive)
same,GI50,HOP-62,13.8 µM (inactive)
same,GI50,BT-549,32.7 µM (inactive)
same,GI50,MOLT-4,19 µM (inactive)
same,GI50,OVCAR-3,19.3 µM (inactive)
same,GI50,UACC-62,64.1 µM (inactive)
same,GI50,NCI-H226,35.2 µM (inactive)
same,GI50,MDA-MB-435,22.7 µM (inactive)
same,GI50,HT-29,33.2 µM (inactive)
same,GI50,NCI-H460,35.8 µM (inactive)
same,GI50,U-251,57.8 µM (inactive)
same,GI50,OVCAR-5,56.4 µM (inactive)
same,GI50,EKVX,32.9 µM (inactive)
same,GI50,NCI-H522,23.3 µM (inactive)
same,GI50,COLO 205,32.1 µM (inactive)
same,GI50,SK-MEL-28,17.2 µM (inactive)
same,GI50,SF-539,> 100 µM (inactive)
same,GI50,786-0,30.5 µM (inactive)
same,GI50,SK-MEL-5,25 µM (inactive)
same,GI50,UACC-257,38.1 µM (inactive)
same,GI50,NCI/ADR-RES,34.4 µM (inactive)
same,GI50,NCI-H23,23.4 µM (inactive)
same,GI50,K562,37.9 µM (inactive)
same,GI50,OVCAR-8,32.2 µM (inactive)
same,GI50,M14,52.5 µM (inactive)
same,GI50,SNB-19,35.3 µM (inactive)
same,GI50,MCF7,25.1 µM (inactive)
same,GI50,TK-10,89.5 µM (inactive)
same,GI50,HCT-15,67.8 µM
same,GI50,SR,30.4 µM (inactive)
same,GI50,T47D,> 10 µM (inactive)
same,GI50,HOP-92,25.1 µM (inactive)
NC(=O)CNC(=O)C1CCCN1C(=O)C1CCCCNOC(=O)CC[C@@H](NC(=O)OCC2c3ccccc3-c3ccccc32)C(=O)NC(Cc2c[nH]c3ccccc23)C(=O)N1 (stereo partly specified) (Fmoc-[dE][ξW][X33][ξP]G-NH2; ester 1-3),GI50,HL-60,> 100 µM (inactive)
same,GI50,SN12C,> 100 µM (inactive)
same,GI50,UO-31,20.7 µM (inactive)
same,GI50,A549,> 100 µM (inactive)
same,GI50,HCC 2998,> 100 µM (inactive)
same,GI50,OVCAR-4,> 100 µM (inactive)
same,GI50,MDA-MB-231,30.6 µM (inactive)
same,GI50,SF-295,> 100 µM (inactive)
same,GI50,Malme-3M,> 100 µM (inactive)
same,GI50,SNB-75,> 100 µM (inactive)
same,GI50,SK-MEL-2,> 100 µM (inactive)
same,GI50,IGROV-1,> 100 µM (inactive)
same,GI50,ACHN,> 100 µM (inactive)
same,GI50,HCT-116,> 100 µM (inactive)
same,GI50,PC-3,> 100 µM (inactive)
same,GI50,DU-145,> 100 µM (inactive)
same,GI50,KM12,> 100 µM (inactive)
same,GI50,CAKI-1,> 100 µM (inactive)
same,GI50,LOX IMVI,> 100 µM (inactive)
same,GI50,RXF 393,> 100 µM (inactive)
same,GI50,SK-OV-3,> 100 µM (inactive)
same,GI50,SF-268,> 100 µM (inactive)
same,GI50,SW-620,> 100 µM (inactive)
same,GI50,CCRF-CEM,> 100 µM (inactive)
same,GI50,HOP-62,> 100 µM (inactive)
same,GI50,BT-549,> 100 µM (inactive)
same,GI50,MOLT-4,> 100 µM (inactive)
same,GI50,OVCAR-3,> 100 µM (inactive)
same,GI50,UACC-62,> 100 µM (inactive)
same,GI50,NCI-H226,> 100 µM (inactive)
same,GI50,MDA-MB-435,> 100 µM (inactive)
same,GI50,HT-29,> 100 µM (inactive)
same,GI50,NCI-H460,> 100 µM (inactive)
same,GI50,U-251,> 100 µM (inactive)
same,GI50,OVCAR-5,63.5 µM (inactive)
same,GI50,EKVX,> 100 µM (inactive)
same,GI50,NCI-H522,> 100 µM (inactive)
same,GI50,Hs-578T,> 100 µM (inactive)
same,GI50,COLO 205,> 100 µM (inactive)
same,GI50,SK-MEL-28,> 100 µM (inactive)
same,GI50,SF-539,> 100 µM (inactive)
same,GI50,786-0,> 100 µM (inactive)
same,GI50,SK-MEL-5,> 100 µM (inactive)
same,GI50,UACC-257,> 100 µM (inactive)
same,GI50,NCI/ADR-RES,> 100 µM (inactive)
same,GI50,NCI-H23,> 100 µM (inactive)
same,GI50,K562,> 100 µM (inactive)
same,GI50,OVCAR-8,> 100 µM (inactive)
same,GI50,RPMI-8226,> 100 µM (inactive)
same,GI50,M14,64.4 µM (inactive)
same,GI50,SNB-19,> 100 µM (inactive)
same,GI50,MCF7,> 100 µM (inactive)
same,GI50,TK-10,> 100 µM (inactive)
same,GI50,HCT-15,> 100 µM
same,GI50,SR,> 100 µM (inactive)
same,GI50,T47D,> 100 µM (inactive)
same,GI50,HOP-92,> 100 µM (inactive)
